Experimental data taken from patent US20100168079A1 (priority 2008, published 2010).
Read-outs that look alike come from different tables or passages of the source.

What was measured:
circulating lymphocytes = assay: Measurement of Circulating Lymphocytes; assay type: in vivo, Rats (Lewis strain, male); conditions: Rattus norvegicus, Lymphocyte, read-out: Residual Lymphocyte Counts 14 hours after 30 mg/kg p.o. dosing
Protocol: The compounds of formula (I) typically induce the depletion of blood lymphocyte as may be determined in the assay described below. Moreover, compounds of formula (I) are typically efficacious in the said assay also when administered via the per oral route of administration.
Measurement of Circulating Lymphocytes:
The test compounds (or salts thereof) are dissolved in a vehicle such as water, saline, PEG (polyethylene glycol) 200, or PBS (phosphate buffered saline). Rats (Lewis strain, male, 6-12 weeks old) are administered up to 100 mg/kg of the test compounds in 2 ml/kg vehicle via per oral or subcutaneous application. The vehicle or a reference salt and FTY720 (0.3 mg/kg) are included as negative and positive controls, respectively.
Blood is collected from the sublingual vein before and 2, 8 and 24 hours or 14, 18 and 24 hours after the test compound administration under short isoflurane anesthesia. Whole blood samples are subjected to hematology analysis. Peripheral lymphocyte counts are determined using an automated analyzer. The Haemathology System uses a combination of light scatter, cytochemical staining and nuclear density on two independent channels to measure the total and differential white cell counts. Two to four rats are used to assess the lymphocyte depletion activity of each compound screened. The data are presented as mean±SEM.

human S1P1 receptors = molecular target: T1, human S1P1 receptors (Homo sapiens, UniProt P21453); assay: Human S1P1 Receptor Calcium FLIPR Antagonist Assay (HeLa Gα16 S1P1); assay type: cell-based; conditions: relative antagonism of Ca2+ signal evoked by probing agonist GNF-AC-1 at EC80; HeLa-S1P1/Gα16 cells
T1 construct: myc (N); expressed in transfected cells; host or cells: HeLa (human cervix carcinoma, ATCC CCL2), HeLa-S1P1/Gα16 cell clone 1
T1 sequence (P21453 whole entry): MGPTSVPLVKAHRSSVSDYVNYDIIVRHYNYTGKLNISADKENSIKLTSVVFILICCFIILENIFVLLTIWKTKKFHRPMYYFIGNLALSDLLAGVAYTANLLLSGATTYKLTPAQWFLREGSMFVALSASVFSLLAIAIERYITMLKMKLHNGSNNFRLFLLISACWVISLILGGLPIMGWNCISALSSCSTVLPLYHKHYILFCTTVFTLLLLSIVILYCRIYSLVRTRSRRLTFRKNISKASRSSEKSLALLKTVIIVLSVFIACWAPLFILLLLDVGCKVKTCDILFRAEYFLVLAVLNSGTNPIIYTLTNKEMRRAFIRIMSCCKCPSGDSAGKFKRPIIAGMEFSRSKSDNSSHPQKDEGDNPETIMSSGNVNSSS
Protocol: Human S1P1 Receptor Calcium FLIPR Antagonist Assay
The cells are plated in 384 well black plates (10′000 cells per well). […] After washing, the cells are transferred to the FLIPR. The test compounds are added at different concentrations […]) in HBSS in the presence of 0.1% BSA and changes in fluorescence are recorded (indication of agonism). The probing agonist is added 20-30 minutes afterwards to the wells at a concentration giving 80% of the maximal activity (EC80). After each addition, time points are collected as follows: 20 time points (2 seconds) before the addition of the agonist (Fmin) and 60 time points (1 or 2 seconds) after the addition of the probing agonist. This allows the determination of the maximal fluorescence (Fmax). The ratio (Fmax-Fmin)/Fmin is plotted against the log of the concentration of the test compounds and the IC50 (relative antagonism) is calculated using the XLfit-4 software. […] A concentration-response curve of the probing agonist is determined on each plate in parallel.

[1] = male Lewis rats, 14 hours after oral 30 mg/kg, compared to vehicle-only group, mean±SEM

Row | IC50 (human S1P1 receptors) | Compound | response vs control in vivo at 30 mg/kg (circulating lymphocytes; po, 14 h) | response vs control in vivo at 30 mg/kg (circulating lymphocytes; [1])
1 | – | Cc1cc([C@@H](C)Nc2cccc(-c3cc(C)c(C(=O)N[C@@H](C)C(=O)O)c(C)c3)c2)ccc1Cl [Example 3, (S)-2-({3′-[(R)-1-(4-Chloro-3-methyl-phenyl)-ethylamino]-3,5-dimethyl-biphenyl-4-carbonyl}-amino)-propionic acid] | 15.5% | –
2 | 2 nM | CC[C@@H](Nc1cccc(-c2cc(C)c(C(=O)N[C@@H](C)C(=O)O)c(C)c2)c1)c1ccc(Cl)c(C)c1 [Example 6, (S)-2-({3′-[(R)-1-(4-Chloro-3-methyl-phenyl)-propylamino]-3,5-dimethyl-biphenyl-4-carbonyl}-amino)-propionic acid] | – | 15.9%
3 | 2 nM | Cc1cc(C(C)Nc2cccc(-c3cc(C)c(C(=O)NC4(C(=O)O)CC4)c(C)c3)c2)ccc1Cl (stereo not shown) [Example 7, 1-({3′-[1-(4-Chloro-3-methyl-phenyl)-ethylamino]-3,5-dimethyl-biphenyl-4-carbonyl}-amino)-cyclopropanecarboxylic acid] | – | 14.8%
4 | 2 nM | Cc1cc([C@@H](C)Nc2cccc(-c3cc(C)c(C(=O)NC4(C(=O)O)CC4)c(C)c3)c2)ccc1Cl [Example 8, 1-({3′-[(R)-1-(4-Chloro-3-methyl-phenyl)-ethylamino]-3,5-dimethyl-biphenyl-4-carbonyl}-amino)-cyclopropanecarboxylic acid] | – | 16.7%
5 | 8 nM | CCC(Nc1cccc(-c2cc(C)c(C(=O)N[C@@H](C)C(=O)O)c(C)c2)c1)c1ccc(Cl)c(Cl)c1 (stereo partly drawn) [Example 20, (S)-2-({3′-[1-(3,4-Dichloro-phenyl)-propylamino]-3,5-dimethyl-biphenyl-4-carbonyl}-amino)-propionic acid] | – | 18.7%
6 | 2 nM | Cc1cc(C(C)Nc2ccc(F)c(-c3cc(C)c(C(=O)N[C@@H](C)C(=O)O)c(C)c3)c2)ccc1Cl (stereo partly drawn) [Example 22, (S)-2-({5′-[1-(4-Chloro-3-methyl-phenyl)-ethylamino]-2′-fluoro-3,5-dimethyl-biphenyl-4-carbonyl}-amino)-propionic acid] | – | 18.7%
7 | 1 nM | Cc1cc([C@@H](C)Nc2ccc(F)c(-c3cc(C)c(C(=O)N[C@@H](C)C(=O)O)c(C)c3)c2)ccc1Cl [Example 23, (S)-2-({5′-[(R)-1-(4-Chloro-3-methyl-phenyl)-ethylamino]-2′-fluoro-3,5-dimethyl-biphenyl-4-carbonyl}-amino)-propionic acid] | – | 17.4%
8 | 1 nM | CCC(Nc1ccc(F)c(-c2cc(C)c(C(=O)N[C@@H](C)C(=O)O)c(C)c2)c1)c1ccc(Cl)c(C)c1 (stereo partly drawn) [Example 24, (S)-2-({5′-[1-(4-Chloro-3-methyl-phenyl)-propylamino]-2′-fluoro-3,5-dimethyl-biphenyl-4-carbonyl}-amino)-propionic acid] | – | 16.8%
9 | 4 nM | Cc1cc(C(Nc2cccc(-c3ccc(C(=O)N[C@@H](C)C(=O)O)c(C(F)(F)F)c3)c2)C(F)(F)F)ccc1Cl (stereo partly drawn) [Example 92, (S)-2-({3′-[1-(4-Chloro-3-methyl-phenyl)-2,2,2-trifluoro-ethylamino]-3-trifluoromethyl-biphenyl-4-carbonyl}-amino)-propionic acid] | – | –
10 | 4 nM | Cc1cc(C(Nc2cccc(-c3ccc(C(=O)N(C)C4(C(=O)O)CC4)c(C(F)(F)F)c3)c2)C(F)(F)F)ccc1Cl (stereo not shown) [Example 93, 1-({3′-[1-(4-Chloro-3-methyl-phenyl)-2,2,2-trifluoro-ethylamino]-3-trifluoromethyl-biphenyl-4-carbonyl}-methyl-amino)-cyclopropanecarboxylic acid] | – | –
11 | 14 nM | Cc1cc(C(Nc2cccc(-c3ccc(C(=O)N[C@@H](C)C(=O)O)c(Cl)c3)c2)C(F)(F)F)ccc1Cl (stereo partly shown) [Example 94] | – | –
12 | 14 nM | Cc1cc(C(Nc2cccc(-c3ccc(C(=O)NC4(C(=O)O)CC4)c(Cl)c3)c2)C(F)(F)F)ccc1Cl (stereo not shown) [Example 95, 1-({3-Chloro-3′-[1-(4-chloro-3-methyl-phenyl)-2,2,2-trifluoro-ethylamino]-biphenyl-4-carbonyl}-amino)-cyclopropanecarboxylic acid] | – | –
13 | 2 nM | Cc1cc([C@H](Nc2cccc(-c3ccc(C(=O)N(C)[C@@H](C)C(=O)O)c(Cl)c3)c2)C(F)(F)F)ccc1Cl [Example 96, (S)-2-({3-Chloro-3′-[(S)-1-(4-chloro-3-methyl-phenyl)-2,2,2-trifluoro-ethylamino]-biphenyl-4-carbonyl}-methyl-amino)-propionic acid] | – | –
14 | 1 nM | Cc1cc(C(C)(C)Nc2cccc(-c3ccc(C(=O)N[C@@H](C)C(=O)O)c(Cl)c3)c2)ccc1Cl [Example 97, (S)-2-({3-Chloro-3′-[1-(4-chloro-3-methyl-phenyl)-1-methyl-ethylamino]-biphenyl-4-carbonyl}-amino)-propionic acid] | – | –
15 | 4 nM | Cc1cc(C(C)(C)Nc2cccc(-c3ccc(C(=O)N(C)[C@@H](C)C(=O)O)c(Cl)c3)c2)ccc1Cl [Example 98, (S)-2-({3-Chloro-3′-[1-(4-chloro-3-methyl-phenyl)-1-methyl-ethylamino]-biphenyl-4-carbonyl}-methyl-amino)-propionic acid] | – | –
16 | 1 nM | CC[C@@H](Nc1cccc(-c2cc(C)c(C(=O)N[C@@H](C)C(=O)O)c(C)c2)c1)c1cc(C)c(Cl)c(C)c1 [Example 101, (S)-2-({3′-[(R)-1-(4-Chloro-3,5-dimethyl-phenyl)-propylamino]-3,5-dimethyl-biphenyl-4-carbonyl}-amino)-propionic acid] | – | –
17 | 1 nM | CC[C@@H](Nc1cccc(-c2cc(C)c(C(=O)NC3(C(=O)O)CC3)c(C)c2)c1)c1cc(C)c(Cl)c(C)c1 [Example 102, 1-({3-[(R)-1-(4-Chloro-3,5-dimethyl-phenyl)-propylamino]-3,5-dimethyl-biphenyl-4-carbonyl}-amino)-cyclopropanecarboxylic acid] | – | –
18 | 1 nM | CC[C@H](c1ccc(Cl)c(C)c1)N(C)c1cccc(-c2cc(C)c(C(=O)N[C@@H](C)C(=O)O)c(C)c2)c1 [Example 104, (S)-2-[(3′-{[(R)-1-(4-Chloro-3-methyl-phenyl)-propyl]-methyl-amino}-3,5-dimethyl-biphenyl-4-carbonyl)-amino]-propionic acid] | – | –
19 | 1 nM | CC[C@@H](Nc1cccc(-c2cc(C)c(C(=O)N(C)[C@@H](C)C(=O)O)c(C)c2)c1)c1ccc(Cl)c(C)c1 [Example 107, (S)-2-({3′-[(R)-1-(4-Chloro-3-methyl-phenyl)-propylamino]-3,5-dimethyl-biphenyl-4-carbonyl}-methyl-amino)-propionic acid] | – | –
20 | 35 nM | CC[C@H](c1ccc(Cl)c(C)c1)N(C)c1cccc(-c2cc(C)c(C(=O)N(C)C3(C(=O)O)CC3)c(C)c2)c1 [Example 110, 1-[(3′-{[(R)-1-(4-Chloro-3-methyl-phenyl)-propyl]-methyl-amino}-3,5-dimethyl-biphenyl-4-carbonyl)-methyl-amino]-cyclopropanecarboxylic acid] | – | –
21 | 8 nM | CC[C@@H](Nc1cccc(-c2cc(C)c(C(=O)N(C)C3(C(=O)O)CC3)c(C)c2)c1)c1ccc(Cl)c(C)c1 [Example 111, 1-({3′-[(R)-1-(4-Chloro-3-methyl-phenyl)-propylamino]-3,5-dimethyl-biphenyl-4-carbonyl}-methyl-amino)-cyclopropanecarboxylic acid] | – | –
22 | 1 nM | Cc1cc([C@@H](C)Nc2cccc(-c3cc(C)c(C(=O)N[C@@H](CN)C(=O)O)c(C)c3)c2)ccc1Cl [Example 114, (S)-3-Amino-2-({3′-[(R)-1-(4-chloro-3-methyl-phenyl)-ethylamino]-3,5-dimethyl-biphenyl-4-carbonyl}-amino)-propionic acid] | – | –
23 | 2 nM | CC[C@H](c1ccc(Cl)c(C)c1)N(C)c1ccc(F)c(-c2cc(C)c(C(=O)N[C@@H](C)C(=O)O)c(C)c2)c1 [Example 116, (S)-2-[(5′-{[(R)-1-(4-Chloro-3-methyl-phenyl)-propyl]-methyl-amino}-2′-fluoro-3,5-dimethyl-biphenyl-4-carbonyl)-amino]-propionic acid] | – | –
24 | 4 nM | CC[C@H](c1ccc(Cl)c(C)c1)N(C)c1ccc(F)c(-c2cc(C)c(C(=O)N(C)[C@@H](C)C(=O)O)c(C)c2)c1 [Example 118, (S)-2-[(5′-{[(R)-1-(4-Chloro-3-methyl-phenyl)-propyl]-methyl-amino}-2′-fluoro-3,5-dimethyl-biphenyl-4-carbonyl)-methyl-amino]-propionic acid] | – | –
